From ChEMBL document CHEMBL3864158, “Syntheses, cytotoxic activity evaluation and HQSAR study of 1,2,3-triazole-linked isosteviol derivatives as potential anticancer agents” (Bioorg Med Chem Lett, 2016)

Experiments:
[1] = Cytotoxicity against human HCT116 cells assessed as decrease in cell proliferation after 72 hrs by MTT assay; format: functional, cell-based; conditions: HCT-116, 72 h
[2] = Cytotoxicity against human JeKo1 cells assessed as decrease in cell proliferation after 72 hrs by MTT assay; format: functional, cell-based; conditions: JeKo-1, 72 h

With `CCOC(=O)[C@]1(C)CCC[C@@]2(C)[C@@H]3CC[C@@]4(C)C[C@]3(CC[C@@H]21)[C@H](Cn1cc(-c2ccccc2)nn1)[C@H]4O` as the compound, how does the IC50 [1] read?
The IC50 was 8.57 µM.

And the IC50 [2]?
Its IC50 is 18.8 µM.

With `CCOC(=O)[C@]1(C)CCC[C@@]2(C)[C@@H]3CC[C@@]4(C)C[C@]3(CC[C@@H]21)C[C@@H]4n1cc(COc2ccc(C(=O)O)cc2)nn1` as the compound, how does the IC50 [1] read?
The IC50 was 11.8 µM.

What about the IC50 [2] of the same compound?
Its IC50 is 54.4 µM.

For `CCOC(=O)[C@]1(C)CCC[C@@]2(C)[C@@H]3CC[C@@]4(C)C[C@]3(CC[C@@H]21)[C@H](Cn1cc(COc2cccc(C=O)c2)nn1)[C@H]4O`, which IC50 [1] is on record?
Its IC50 is 4.64 µM.

And the IC50 [2]?
Its IC50 is 15.6 µM.

For `CCOC(=O)[C@]1(C)CCC[C@@]2(C)[C@@H]3CC[C@@]4(C)C[C@]3(CC[C@@H]21)[C@H](Cn1cc(COc2ccc(C(C)=O)cc2)nn1)[C@H]4O`, which IC50 [1] is on record?
The IC50 was 8.15 µM.

And the IC50 [2]?
Its IC50 is 19.6 µM.

Which results are given for `CCOC(=O)[C@]1(C)CCC[C@@]2(C)[C@@H]3CC[C@@]4(C)C[C@]3(CC[C@@H]21)C[C@@H]4n1cc(COc2cccc(C=O)c2)nn1`?
IC50 [1]: 6.5 µM; IC50 [2]: 9.5 µM

With `CCOC(=O)[C@]1(C)CCC[C@@]2(C)[C@@H]3CC[C@@]4(C)C[C@]3(CC[C@@H]21)[C@H](CN=[N+]=[N-])[C@H]4O` as the compound, how does the IC50 [1] read?
Its IC50 is 14.8 µM.

And the IC50 [2]?
Its IC50 is 31.2 µM.

What does the source list for `CCOC(=O)[C@]1(C)CCC[C@@]2(C)[C@@H]3CC[C@@]4(C)C[C@]3(CC[C@@H]21)[C@H](Cn1cc(COc2ccccc2C=O)nn1)[C@H]4O`?
IC50 [1]: 2.99 µM; IC50 [2]: 12.7 µM

With `CCOC(=O)[C@]1(C)CCC[C@@]2(C)[C@@H]3CC[C@@]4(C)C[C@]3(CC[C@@H]21)C[C@@H]4N=[N+]=[N-]` as the compound, how does the IC50 [1] read?
Its IC50 is 46.1 µM.

And the IC50 [2]?
The IC50 was 55.2 µM.

For `CCOC(=O)[C@]1(C)CCC[C@@]2(C)[C@@H]3CC[C@@]4(C)C[C@]3(CC[C@@H]21)[C@H](Cn1cc(CO)nn1)[C@H]4O`, which IC50 [1] is on record?
Its IC50 is 19.6 µM.

And the IC50 [2]?
The IC50 was 32.3 µM.

What does the source list for `CC(=O)O[C@@H]1O[C@H](n2cc(COC(=O)[C@]3(C)CCC[C@@]4(C)[C@H]5CC[C@@]6(C)C[C@]5(CC[C@@H]43)CC6=O)nn2)[C@@H](OC(C)=O)[C@@H](OC(C)=O)[C@H]1OC(C)=O`?
IC50 [1]: 19.3 µM; IC50 [2]: 26.3 µM

For `CCOC(=O)[C@]1(C)CCC[C@@]2(C)[C@@H]3CC[C@@]4(C)C[C@]3(CC[C@@H]21)C[C@@H]4n1cc(COc2ccc(C(C)=O)cc2)nn1`, which IC50 [1] is on record?
Its IC50 is 9.62 µM.

And the IC50 [2]?
Its IC50 is 13.9 µM.

Which results are given for `C[C@@]12CC[C@@H]3[C@@](CC[C@H]4[C@@]3(C)CCC[C@@]4(C)C(=O)O)(CC1=O)C2` [ISOSTEVIOL]?
IC50 [1]: > 150 µM; IC50 [2]: > 150 µM

With `C#CCOC(=O)[C@]1(C)CCC[C@@]2(C)[C@@H]3CC[C@@]4(C)C[C@]3(CC[C@@H]21)CC4=O` as the compound, how does the IC50 [1] read?
The IC50 was 27.1 µM.

And the IC50 [2]?
Its IC50 is 24.7 µM.

Which IC50 [1] does the source give for `CCOC(=O)[C@]1(C)CCC[C@@]2(C)[C@@H]3CC[C@@]4(C)C[C@]3(CC[C@@H]21)[C@H](Cn1cc(COc2ccc(C=O)cc2)nn1)[C@H]4O` here?
Its IC50 is 6.62 µM.

And the IC50 [2]?
Its IC50 is 16.4 µM.

Which IC50 [1] does the source give for `CCOC(=O)[C@]1(C)CCC[C@@]2(C)[C@@H]3CC[C@@]4(C)C[C@]3(CC[C@@H]21)C[C@H]4OS(=O)(=O)c1ccc(C)cc1` here?
Its IC50 is 51.4 µM.

What about the IC50 [2] of the same compound?
The IC50 was 9.75 µM.

Which IC50 [1] does the source give for `CCOC(=O)[C@]1(C)CCC[C@@]2(C)[C@@H]3CC[C@@]4(C)C[C@]3(CC[C@@H]21)C[C@@H]4n1cc(COc2ccc(C=O)cc2OC)nn1` here?
Its IC50 is 7.18 µM.

What about the IC50 [2] of the same compound?
The IC50 was 10.9 µM.

For `CCOC(=O)[C@]1(C)CCC[C@@]2(C)[C@@H]3CC[C@@]4(C)C[C@]3(CC[C@@H]21)C[C@@H]4n1cc(-c2ccccc2)nn1`, which IC50 [1] is on record?
Its IC50 is 48.4 µM.

What about the IC50 [2] of the same compound?
The IC50 was 95.9 µM.

Which results are given for `CCOC(=O)[C@]1(C)CCC[C@@]2(C)[C@@H]3CC[C@@]4(C)C[C@]3(CC[C@@H]21)C[C@H]4n1cc(COC(=O)[C@]2(C)CCC[C@@]3(C)[C@@H]4CC[C@@]5(C)C[C@]4(CC[C@@H]32)CC5=O)nn1`?
IC50 [1]: 126 µM; IC50 [2]: 15.3 µM

With `CCOC(=O)[C@]1(C)CCC[C@@]2(C)[C@@H]3CC[C@@]4(C)C[C@]3(CC[C@@H]21)[C@H](Cn1cc(COc2ccc(C=O)cc2OC)nn1)[C@H]4O` as the compound, how does the IC50 [1] read?
The IC50 was 4.04 µM.

And the IC50 [2]?
Its IC50 is 7.09 µM.

Which IC50 [1] does the source give for `CCOC(=O)[C@]1(C)CCC[C@@]2(C)[C@@H]3CC[C@@]4(C)C[C@]3(CC[C@@H]21)C[C@@H]4n1cc(COc2ccc(C=O)cc2)nn1` here?
Its IC50 is 8.2 µM.

And the IC50 [2]?
Its IC50 is 11.7 µM.

Which results are given for `CCOC(=O)[C@]1(C)CCC[C@@]2(C)[C@@H]3CC[C@@]4(C)C[C@]3(CC[C@@H]21)C[C@@H]4n1cc(COc2ccccc2C=O)nn1`?
IC50 [1]: 3.8 µM; IC50 [2]: 12.2 µM
